In patent publication US9161993B2, “Charge triggering of self-organized nanoparticles” (Danmarks Tekniske Universitet, priority 2011, dated 2015):

Target: Thermolysin (Bacillus thermoproteolyticus, UniProt P00800)
Settings: liposomes exposing RJ111; linker Trp-Ile-Pro-Val-Ser-Leu-Arg-Ser-Gly
Experimental: The size and ζ-potential (zeta potential) of RJ111 formulated liposomes were measured before and after enzymatic cleavage of the RJ111 peptide linker using Thermolysin as a model enzyme. RJ111 formulated liposomes were mixed with a buffered solution of Thermolysine yielding final concentrations of: 2.2 mM lipid (220 μM RJ111), 220 μg/ml Thermolysine, 1 uM, ZnCl2 0.5 mM CaCl2, 30 mM HEPES and 125 mM NaCl. The reaction mixtures containing Thermolysine and RJ111 formulated in liposomes were heated to 37° C. for a period of 12 hours and the size and ζ-potential were subsequently measured in an equi-osmolar solution of 300 mM Glucose, 10 mM HEPES (pH 7.4) and 1 mM CaCl2. The ζ-potential and size of the non-cleaved RJ111 formulations were measured (ZetaPALS, Brookhaven Instruments Corp., Holtsville, N.Y., USA) in an equi-osmolar solution of 300 mM Glucose, 10 mM HEPES (pH 7.4) and 1 mM CaCl2.

Chain of Thermolysin (P00800 233-548, species assumed): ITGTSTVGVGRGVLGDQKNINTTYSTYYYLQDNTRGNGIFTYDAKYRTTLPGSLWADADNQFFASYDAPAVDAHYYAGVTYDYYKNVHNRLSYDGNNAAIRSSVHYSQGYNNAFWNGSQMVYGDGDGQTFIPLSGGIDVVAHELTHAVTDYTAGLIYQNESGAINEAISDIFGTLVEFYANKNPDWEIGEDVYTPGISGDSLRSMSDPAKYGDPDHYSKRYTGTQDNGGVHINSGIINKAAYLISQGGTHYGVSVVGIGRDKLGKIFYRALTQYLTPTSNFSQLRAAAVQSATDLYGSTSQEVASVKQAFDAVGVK

## (C14)2-dap-Trp-Ile-Pro-Val-Ser-Leu-Arg-Ser-Gly-Glu-Glu-Glu-Glu-PEG2000-OH [RJ111]
  cleavage of peptide linker by Thermolysine: efficiently was cleaved
